Data as given in patent US20230096766A1, “AMINO ACID HAVING FUNCTIONAL GROUP CAPABLE OF INTERMOLECULAR HYDROGEN BONDING, PEPTIDE COMPOUND CONTAINING SAME AND METHOD FOR PRODUCTION THEREOF” (Chugai Seiyaku Kabushiki Kaisha, priority 2018, published 2023).
*1 amine or outer side, *2 acyl side, *3 side chain or, on linkers, in order; H or OH if unused. Where a SMILES comes first, the peptide text is derived from it. Bridges are numbered along the chain shown (N, C = ends). [ ]: non-standard residue; d: D form. The star is where a group is joined. ξ: configuration not given here. NMeHph(3-OMe-4-CONHMe) = CNC(=O)c1ccc(CC[C@H](NC)C(=O)O)cc1OC; hPhe(3-OMe,4-CONHMe) = CNC(=O)c1ccc(CC[C@H](N)C(=O)O)cc1OC; NMePhe(3-Cl) = CN[C@@H](Cc1cccc(Cl)c1)C(=O)O; X12 = O=C([C@H](CCCC(O)C(F)(F)F)N[*:1])[*:2]; ξGln(SO2Me) = CS(=O)(=O)NC(=O)CCC(N)C(=O)O; NMehPhe = CN[C@@H](CCc1ccccc1)C(=O)O; X6 = O=C([C@H](CCCCO)N[*:1])[*:2]; NMeF = CN[C@@H](Cc1ccccc1)C(=O)O; NMeGABA = CN(CCCC(=O)[*:2])[*:1]; NMeI = CC[C@H](C)[C@H](NC)C(=O)O; NMeβAla = CN(CCC(=O)[*:2])[*:1]; CH2CONHtBu = CC(C)(C)NC(=O)C*; NMeL = CN[C@@H](CC(C)C)C(=O)O; Butyl(3R-OH) = C[C@@H](O)CC*; Propyl(2R-OH) = C[C@@H](O)C*; NMeV = CN[C@H](C(=O)O)C(C)C; NMeAbu = CC[C@H](NC)C(=O)O; NMeA = CN[C@@H](C)C(=O)O; Piperidide = C1CCN(*)CC1; CH2CMe2OH = CC(C)(O)C*; NBuGly = CCCCNCC(=O)O; Isopentyl = CC(C)CC*; NPrGly = CCCNCC(=O)O; Ethyl(2-OH) = OCC*; Sar = CNCC(=O)O; tBu = CC(C)(C)*

Assay: in vitro
Details: human, Caco-2, Caco-2
`CCCCN1CC(=O)N(C)[C@@H](CC(C)C)C(=O)N[C@@H](COC(C)(C)C)C(=O)N(C)[C@@H](Cc2ccccc2)C(=O)N(C)[C@@H](C(C)C)C(=O)N[C@H](C(=O)N2CCCCC2)CC(=O)N[C@H](C(C)C)C(=O)N(C)[C@@H](Cc2ccccc2)C(=O)NC(CCC(=O)NS(C)(=O)=O)C(=O)N(C)[C@@H](CC(C)C)C(=O)N[C@@H](CC(C)C)C1=O` (stereo partly drawn) [pd67] ([dV][NMeF][ξGln(SO2Me)][NMeL]L[NBuGly][NMeL]S(tBu)[NMeF][NMeV]D-Piperidide; lactam N-11) gave a Papp of 0.06 ×10⁻⁶ cm/s.

Same assay, conditions: human, Caco-2, Caco-2 (cm/sec)
With `CC[C@H](C)[C@H]1C(=O)N[C@@H](COC[C@@H](C)O)C(=O)N(C)CC(=O)N(C)[C@@H](CC(C)C)C(=O)N[C@H](C(=O)N2CCCCC2)CC(=O)N(C)[C@@H](C)C(=O)N[C@@H](CC(C)C)C(=O)N(C)[C@@H](CC(C)C)C(=O)N(C)[C@@H](Cc2ccccc2)C(=O)N[C@@H](CC(C)C)C(=O)N(C)[C@@H](Cc2ccccc2)C(=O)N1C` [AP85] ([NMeA]L[NMeL][NMeF]L[NMeF][NMeI]S(Propyl(2R-OH))[Sar][NMeL]D-Piperidide; lactam N-11) the Papp was 5.2 ×10⁻⁶ cm/s.
Work on `CC(C)C[C@H]1C(=O)N[C@@H](C(C)C)C(=O)N(C)[C@@H](Cc2ccccc2)C(=O)N(C)[C@@H](Cc2ccccc2)C(=O)N[C@@H](COC(C)(C)C)C(=O)N(C)[C@@H](CC(C)C)C(=O)N[C@@H]([C@@H](C)O)C(=O)N(C)[C@@H](Cc2ccccc2)C(=O)N(C)[C@@H](CC(C)C)C(=O)N[C@H](C(=O)N2CCCCC2)CC(=O)N(C)CCCC(=O)N1C` [pd216] ([NMeGABA][NMeL]V[NMeF][NMeF]S(tBu)[NMeL]T[NMeF][NMeL]D-Piperidide; lactam N-11) yielded a Papp of 1.2 ×10⁻⁶ cm/s.
Work on `CCCCN1CC(=O)N(C)[C@@H](Cc2cccc(Cl)c2)C(=O)N(C)[C@@H](CC(C)C)C(=O)N[C@@H](COCC[C@@H](C)O)C(=O)N(C)[C@@H](CC(C)C)C(=O)N[C@H](C(=O)N2CCCCC2)CC(=O)N(C)CC(=O)N(C)[C@@H](Cc2ccccc2)C(=O)N[C@@H](C(C)C)C(=O)N(C)[C@@H](CC(C)C)C(=O)N[C@@H]([C@@H](C)O)C1=O` [AP114] ([Sar][NMeF]V[NMeL]T[NBuGly][NMePhe(3-Cl)][NMeL]S(Butyl(3R-OH))[NMeL]D-Piperidide; lactam N-11) yielded a Papp of 0.28 ×10⁻⁶ cm/s.
Molecule `CC[C@H](C)[C@@H]1NC(=O)[C@H](Cc2ccccc2)N(C)C(=O)[C@H](CCc2ccc(C(=O)NC)c(OC)c2)NC(=O)[C@H](CC(C)C)N(C)C(=O)[C@H](C(C)C)NC(=O)[C@H](CC(C)C)N(C)C(=O)[C@H](CC(C)C)N(C)C(=O)CNC(=O)[C@H](CC)N(C)C(=O)C[C@@H](C(=O)N2CCCCC2)NC(=O)[C@H]([C@@H](C)O)NC(=O)[C@H](CC(C)C)N(C)C(=O)[C@H](CC(C)C)N(C)C1=O` [AP266] ([NMeAbu]G[NMeL][NMeL]V[NMeL][hPhe(3-OMe,4-CONHMe)][NMeF]I[NMeL][NMeL]TD-Piperidide; lactam N-13) has a Papp of under 0.0895 ×10⁻⁶ cm/s.
With `CCCN1CC(=O)N(C)[C@@H](CCc2ccccc2)C(=O)N(C)[C@@H](CC(C)C)C(=O)N[C@@H](COCCC(C)C)C(=O)N(C)[C@@H](CC(C)C)C(=O)N[C@H](C(=O)N2CCCCC2)CC(=O)N(C)CC(=O)N(C)[C@@H](Cc2cccc(Cl)c2)C(=O)N[C@@H](CCCCO)C(=O)N(C)[C@@H](C(C)C)C(=O)N[C@@H]([C@@H](C)O)C1=O` [Compound B07] ([Sar][NMePhe(3-Cl)][X6][NMeV]T[NPrGly][NMehPhe][NMeL]S(Isopentyl)[NMeL]D-Piperidide; lactam N-11) the Papp was 0.21 ×10⁻⁶ cm/s.
With `CCCCN1CC(=O)N(C)[C@@H](CC(C)C)C(=O)N[C@@H](COC(C)(C)C)C(=O)N(C)[C@@H](CC(C)C)C(=O)N(C)[C@@H](CC)C(=O)N[C@H](C(=O)N2CCCCC2)CC(=O)N[C@H](CC(C)C)C(=O)N(C)[C@@H](Cc2ccccc2)C(=O)N[C@@H](CCc2ccc(C(=O)NC)c(OC)c2)C(=O)N(C)[C@@H](CC(C)C)C(=O)N[C@@H]([C@@H](C)O)C1=O` [AP201] ([dL][NMeF][hPhe(3-OMe,4-CONHMe)][NMeL]T[NBuGly][NMeL]S(tBu)[NMeL][NMeAbu]D-Piperidide; lactam N-11) the Papp was 0.35 ×10⁻⁶ cm/s.
`CC(C)CCOC[C@@H]1NC(=O)[C@H](Cc2ccccc2)N(C)C(=O)[C@H](Cc2ccccc2)N(C)C(=O)[C@H](COCC(C)(C)O)NC(=O)[C@H](CC(C)C)N(C)C(=O)CCCN(C)C(=O)C[C@@H](C(=O)N2CCCCC2)NC(=O)[C@H](CC(C)C)N(C)C(=O)[C@H](CC(C)C)N(C)C(=O)[C@H]([C@@H](C)O)NC(=O)[C@H](CC(C)C)N(C)C1=O` [AP03] ([NMeGABA][NMeL]S(CH2CMe2OH)[NMeF][NMeF]S(Isopentyl)[NMeL]T[NMeL][NMeL]D-Piperidide; lactam N-11) gave a Papp of 0.46 ×10⁻⁶ cm/s.
Molecule `CCCN1CC(=O)N(C)[C@@H](Cc2cccc(Cl)c2)C(=O)N(C)[C@@H](CC(C)C)C(=O)N[C@@H](COCCO)C(=O)N(C)[C@@H](CC(C)C)C(=O)N[C@H](C(=O)N2CCCCC2)CC(=O)N(C)CC(=O)N(C)[C@@H](CCc2ccccc2)C(=O)N[C@@H]([C@@H](C)CC)C(=O)N(C)[C@@H](CC(C)C)C(=O)N[C@@H]([C@@H](C)O)C1=O` [Compound A08] ([Sar][NMehPhe]I[NMeL]T[NPrGly][NMePhe(3-Cl)][NMeL]S(Ethyl(2-OH))[NMeL]D-Piperidide; lactam N-11) has a Papp of 0.32 ×10⁻⁶ cm/s.
`CNC(=O)c1ccc(CC[C@H]2C(=O)N(C)[C@@H](CC(C)C)C(=O)N[C@@H]([C@@H](C)O)C(=O)N(C)CC(=O)N(C)[C@@H](CC(C)C)C(=O)N[C@H](C(=O)N3CCCCC3)CC(=O)N(C)[C@@H](C)C(=O)N[C@@H](CC(C)C)C(=O)N(C)[C@@H](CC(C)C)C(=O)N(C)[C@@H](Cc3ccccc3)C(=O)N[C@@H](CC(C)C)C(=O)N2C)cc1OC` [AP230] ([NMeA]L[NMeL][NMeF]L[NMeHph(3-OMe-4-CONHMe)][NMeL]T[Sar][NMeL]D-Piperidide; lactam N-11) gave a Papp of 0.96 ×10⁻⁶ cm/s.
`CC(C)C[C@@H]1NC(=O)[C@H](Cc2ccccc2)N(C)C(=O)[C@H](CC(C)C)N(C)C(=O)[C@H](COCC(=O)NC(C)(C)C)NC(=O)[C@H](CC(C)C)N(C)C(=O)C[C@@H](C(=O)N2CCCCC2)NC(=O)[C@H](C)N(C)C(=O)CN(C)C(=O)[C@H]([C@@H](C)O)NC(=O)[C@H](CC(C)C)N(C)C(=O)[C@H](CCc2ccccc2)N(C)C1=O` [AP14] ([NMeL]S(CH2CONHtBu)[NMeL][NMeF]L[NMehPhe][NMeL]T[Sar][NMeA]D-Piperidide; lactam N-11) showed a Papp of 0.39 ×10⁻⁶ cm/s.

Same assay, conditions: human, Caco-2, Caco-2 (cm/sec) Papp
With `CC[C@H](C)[C@@H]1NC(=O)[C@H](Cc2ccccc2)N(C)C(=O)[C@H](C)N(C)C(=O)[C@H](CC(C)C)N(C)C(=O)[C@H](Cc2ccccc2)N(C)C(=O)CCN(C)C(=O)C[C@@H](C(=O)N(C)[C@@H](Cc2ccccc2)C(=O)N(C)[C@@H](Cc2ccccc2)C(=O)N[C@@H](C)C(=O)N2CCCCC2)NC(=O)[C@H]([C@@H](C)O)NC(=O)[C@H](CC(C)C)N(C)C(=O)[C@H](CC(C)C)N(C)C1=O` [pd239] ([NMeβAla][NMeF][NMeL][NMeA][NMeF]I[NMeL][NMeL]TD[NMeF][NMeF]A-Piperidide; lactam N-10) the Papp was 0.065 ×10⁻⁶ cm/s.

Same assay, conditions: human, Caco-2, Caco-2 (membrane permeability)
`CC[C@H]1C(=O)N(C)[C@@H](Cc2ccccc2)C(=O)N[C@@H](CC(C)C)C(=O)N(C)[C@@H](Cc2ccccc2)C(=O)N(C)[C@@H](C(C)C)C(=O)N[C@@H](CCCC(O)C(F)(F)F)C(=O)N(C)CC(=O)N(C)[C@@H](CC(C)C)C(=O)N[C@H](C(=O)N2CCCCC2)CC(=O)N(C)[C@@H](C)C(=O)N[C@@H](CC(C)C)C(=O)N1C` (stereo partly drawn) [Compound D14] ([NMeA]L[NMeAbu][NMeF]L[NMeF][NMeV][X12][Sar][NMeL]D-Piperidide; lactam N-11) gave a Papp of 0.9 ×10⁻⁶ cm/s.
